Experimental data: patent US7691416B2, “Methods of treating vascular disease” (priority 2002, dated 2010)
Entries after “also recorded” stand apart in the source; their conditions may differ.

How the values were obtained:
[1] = system: mouse SMC; experiment: SMC proliferation, [3H]thymidine incorporation; type: cell-based; details: for SMC proliferation / Inhibition of SMC proliferation versus air treated controls: CO 250 ppm
Excerpt: (§1) Animals. Male (250-350 g) Brown Norway rats (RT1^n) were used as aortic graft donors and male (250-350 g) Lewis rats (RT11) as recipients. Dawley (400-450 g) rats were used in the balloon injury model. Adult male C57BL/6, C57/S129, p21^−/− and p53^−/− null mice were purchased from Jackson Laboratory (Bar Harbor, Me.). mkk3^(−/−) null mice were generated as described Lu et al. (EMBO. 18:1845-1857 (1999)). The inos^−/− and enos^−/− mice were bred at the University of Pittsburgh. Aortic transplant model. Aortic transplantation was performed as described in Shimizu et al. (Nat. Med. 7:738-741 (2001)). Briefly, 3 to 4 cm of descending aorta was harvested from the donor and implanted between the renal arteries and the aortic bifurcation of the recipient. Both edges of the native abdominal aorta were ligated. Balloon injury model. Balloon angioplasty was carried out as described in Murakami et al. (Atherosclerosis 157:361-368 (2001)). Briefly, a 2 Fr. arterial embolectomy catheter (Baxter, Chicago, Ill.) was inserted into the common carotid artery, and injury was created by inflating the balloon to 5 atmospheres of pressure for 5 minutes. The arteries were flushed and the external carotid artery was ligated, ensuring return of blood flow through the common and internal carotid arteries. Injury of the vessel wall and subsequent pathological analysis was made in a manner that was blinded to the treatment group. CO exposure. CO was delivered to animals as described in Otterbein et al. (Nat. Med. 6:422-428 (2000)). Graft donors and recipients were exposed to CO (250 ppm) for two days before transplantation and for 56 days immediately following transplantation. In the balloon injury model, rats received either no pretreatment or were exposed to CO (250 ppm) for one hour prior to injury. Following surgery rats were housed in room air for two weeks. Cells. Primary mouse and rat smooth muscle cells (SMC) were isolated and cultured as described in Laubach et al. (Proc Natl Acad Sci USA 92:10688-9 (1995)). Mouse SMC isolated from HO-1^−/− mice were obtained as described in Duckers et al. (Nat. Med. 7:693-698 (2001)). Cell treatment and reagents. Guanylate cyclase inhibitor 1H(1,2,4) oxadiazolo(4,3-a)quinoxalin-1 (ODQ; Calbiochem-Novabiochem, San Diego, Calif.; 10-100 μM) and p38 MAPK inhibitor pyridinyl imidazol SB203580 (Calbiochem; 5-20 μM) were dissolved in DMSO. The cGMP analogue 8-bromo-cGMP sodium salt (8-Br-cGMP; Sigma-Aldrich, St. Louis, Mo.; 10-100 μM) and the PKG inhibitor (10-100 μM; Alexis Biochemicals) were dissolved in water. Cell counts and [^3H] thymidine incorporation. Rat and mouse SMC were isolated and cultured as described in Peyton et al. (Blood 99:4443-4448 (2002)). Proliferation assays were carried out as described in Petkova et al. (J Biol. Chem. 276:7932-7936 (2001)). For [^3H] thymidine incorporation studies, cells were serum-starved overnight and then stimulated with 10% serum containing 5 μCi/ml [^3H] thymidine (New England Nuclear, Boston Mass.). [^3H]thymidine incorporation was measured by scintillation spectroscopy and presented as mean counts/min/well. Histomorphometric analysis. Aortic grafts and carotid arteries were harvested at 56 and 14 days respectively. Vessels were fixed, embedded, and serially sectioned (5μ) in toto. Every third slide was stained with Hematoxylin and Eosin (H&E) for histomorphometric analyses. In both models, one or two images per slide at a resolution of 1520×1080 pixels were captured at a magnification of 25× with a Zeiss microscope (Axioskop, Iowa City, Iowa), RT color SPOT (Diagnostic Instrument, Inc., Saint Joseph, Mich.) and Windows NT (Compaq Computer) using Adobe Photoshop version 5.5 software. Areas from eight to ten captured images were calculated using digital imaging software as number of pixels corresponding to those areas. Twenty-four to forty-eight sections from each group were statistically analyzed with SPSS software version 10. Immunostaining and cell population histomorphometric analysis. […]

[2] = system: rat SMC; experiment: SMC proliferation, cell counts; type: cell-based
Excerpt: (§2) Animals. Male (250-350 g) Brown Norway rats (RT1^n) were used as aortic graft donors and male (250-350 g) Lewis rats (RT11) as recipients. Dawley (400-450 g) rats were used in the balloon injury model. Adult male C57BL/6, C57/S129, p21^−/− and p53^−/− null mice were purchased from Jackson Laboratory (Bar Harbor, Me.). mkk3^(−/−) null mice were generated as described Lu et al. (EMBO. 18:1845-1857 (1999)). The inos^−/− and enos^−/− mice were bred at the University of Pittsburgh. Aortic transplant model. Aortic transplantation was performed as described in Shimizu et al. (Nat. Med. 7:738-741 (2001)). Briefly, 3 to 4 cm of descending aorta was harvested from the donor and implanted between the renal arteries and the aortic bifurcation of the recipient. Both edges of the native abdominal aorta were ligated. Balloon injury model. Balloon angioplasty was carried out as described in Murakami et al. (Atherosclerosis 157:361-368 (2001)). […] [^3H]thymidine incorporation was measured by scintillation spectroscopy and presented as mean counts/min/well. […] Areas from eight to ten captured images were calculated using digital imaging software as number of pixels corresponding to those areas. Twenty-four to forty-eight sections from each group were statistically analyzed with SPSS software version 10. […]

[3] = system: rat aortic SMC; experiment: Flow cytometry cell cycle analysis; type: cell-based; details: CO 250 ppm, 24 hours
Excerpt: as §2

[4] = system: SMC; experiment: Trypan blue and propidium iodide exclusion analyses; type: cell-based; details: SMC exposed to CO
Excerpt: as §2

[5] = system: p21Cip1; experiment: Western blot of p21Cip1 expression; type: cell-based, mouse
Excerpt: as §1

[6] = system: cGMP; experiment: cGMP immunoassay (EIA) of SMC lysates; type: cell-based, mouse; details: CO 250 ppm for 8 h or 16 h
Excerpt: as §2

[7] = system: p38 MAPK; experiment: Western blot of phosphorylated p38 MAPK in SMC; type: cell-based, mouse
Excerpt: as §1, with “The cGMP analogue 8-bromo-cGMP sodium salt (8-Br-cGMP; Sigma-Aldrich, St. Louis, Mo.; 10-100 μM) and the PKG inhibitor (10-100 μM; Alexis Biochemicals) were dissolved in water. Cell counts and [^3H] thymidine incorporation. Rat and mouse SMC were isolated and cultured as described in Peyton et al. (Blood 99:4443-4448 (2002)). Proliferation assays were carried out as described in Petkova et al. (J Biol. Chem. 276:7932-7936 (2001)). For [^3H] thymidine incorporation studies, cells were serum-starved overnight and then stimulated with 10% serum containing 5 μCi/ml [^3H] thymidine (New England Nuclear, Boston Mass.).” left out, “Histomorphometric analysis. Aortic grafts and carotid arteries were harvested at 56 and 14 days respectively. Vessels were fixed, embedded, and serially sectioned (5μ) in toto. Every third slide was stained with Hematoxylin and Eosin (H&E) for histomorphometric analyses. In both models, one or two images per slide at a resolution of 1520×1080 pixels were captured at a magnification of 25× with a Zeiss microscope (Axioskop, Iowa City, Iowa), RT color SPOT (Diagnostic Instrument, Inc., Saint Joseph, Mich.) and Windows NT (Compaq Computer) using Adobe Photoshop version 5.5 software.” left out, “10.” for “10. Immunostaining and cell population histomorphometric analysis.”

[8] = system: ATF-2; experiment: Western blot of phosphorylated ATF-2 in SMC; type: cell-based; details: SMC exposed to CO (250 ppm)
Excerpt: as §2

[9] = system: ERK-1 and -2; experiment: Western blot of phosphorylated ERK in SMC; type: cell-based; details: SMC exposed to CO (250 ppm)
Excerpt: as §2

[10] = system: JNK-1 and -2; experiment: Western blot of phosphorylated JNK in SMC; type: cell-based; details: SMC exposed to CO (250 ppm)
Excerpt: as §2

[11] = system: iNOS and eNOS; experiment: Western blot of NOS isoforms in SMC; type: cell-based, mouse; details: CO 250 or 10,000 ppm, varying amounts of time
Excerpt: as §2

[12] = system: PAI-1; experiment: Western blot of PAI-1 in SMC; type: cell-based; details: CO 250 ppm, 24 or 48 hours
Excerpt: as §2

[13] = system: PAI-1; experiment: PAI-1 protein in transplanted aortas (immunohistology and Western blot); type: in vivo, rat; details: 56 days after transplantation
Excerpt: as §2

## [C-]#[O+] [CO, carbon monoxide]
[1]; SMC from ho-1-/- mice
  SMC proliferation: significantly inhibited
[1]; SMC from nos-2-/- (iNOS) mice
  Inhibition of SMC proliferation versus air treated controls: 51±25%
[1]; SMC from nos-3-/- (eNOS) mice
  Inhibition of SMC proliferation versus air treated controls: 54±11%
[1]; SMC from p21Cip1 deficient mice (p21-/-)
  SMC proliferation: not suppressed
[1]; SMC from p53-/- mice, similar extent as wild type
  SMC proliferation: inhibited proliferation
[1]; SMC from wild type mice
  Inhibition of SMC proliferation versus air treated controls: 51±12.9%
[1]; cells from mkk3-/- mice exposed to CO
  Cell proliferation: did not inhibit proliferation
[2]; cessation of CO exposure (250 ppm) on day 6
  Reversibility of the anti-proliferative effect: reversible
[2]; exposure to CO (1000 ppm, FIG. 4B)
  SMC proliferation: suppressed
[3]
  Cell cycle distribution: accumulated in the G0/G1 phase
[4]
  Cell death accompanying inhibition of SMC proliferation: not associated with cell death
[5]; CO 250 ppm, increased by 4 hours, basal at 24 hours
  Time of maximal p21Cip1 expression after CO exposure: 16 h
[5]; SMC exposed to CO (250 ppm)
  p21Cip1 protein expression: up-regulated
[6]
  Intracellular cGMP levels: increased
[7]; CO 250 ppm
  Time of peak p38 MAPK phosphorylation/activation after exposure: four
[7]; SMC exposed to CO (250 ppm)
  p38 MAPK phosphorylation/activation: activated
[8]
  ATF-2 activation: activation
[9]
  Activation of ERK-1 and -2: did not modulate
[10]
  Activation of JNK-1 and -2: induced activation
[11]
  Induction of NOS isoforms: no induction
[12]
  PAI-1 protein: slightly increased
[13]
  PAI-1 protein expression versus allogeneic aortas transplanted in the absence of CO: similar; also recorded: No decrease
